Target: human RORγt LBD fused to the DNA binding domain of the GAL4 protein (Homo sapiens (Human), UniProt P51449)
Experiment: RORγt (LBD) reporter assay in HEK293T cells
Type: cell-based
Parameters: RORγt (LBD) Reporter Assay, % inhibition: dose or concentration left out as unconfirmed
Conditions: for inhibition at 6 µM: HEK-293T, read-out: RORγt (LBD) Reporter Assay, % inhibition @ 6 μM, @ 6 μM

human RORγt LBD fused to the DNA binding domain of the GAL4 protein, sequence (P51449 258-518): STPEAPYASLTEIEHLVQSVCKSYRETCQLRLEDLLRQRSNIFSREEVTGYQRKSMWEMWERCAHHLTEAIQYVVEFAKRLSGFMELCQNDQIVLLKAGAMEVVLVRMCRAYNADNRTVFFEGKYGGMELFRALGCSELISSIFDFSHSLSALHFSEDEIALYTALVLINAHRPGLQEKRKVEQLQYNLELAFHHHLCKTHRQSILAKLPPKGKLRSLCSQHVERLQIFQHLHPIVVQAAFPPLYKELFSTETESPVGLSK

Row | RORγt (LBD) Reporter Assay, % inhibition @ 6 μM [%] | inhibition at 6 µM [%] | Structure (SMILES) | further results
1 | 99 |  | COc1nc2ccc(C(O)(c3ccc(C)nc3C)c3cnnn3C)cc2c(Cl)c1CN1CCC(C(F)(F)F)CC1 (single isomer, unassigned) [Example 103c, (4-Chloro-2-methoxy-3-((4-(trifluoromethyl)piperidin-1-yl)methyl)quinolin-6-yl)(2,6-dimethylpyridin-3-yl)(1-methyl-1H-1,2,3-triazol-5-yl)methanol] | 
2 |  |  | COc1nc2ccc(C(O)(c3ccc(C)nc3C)c3cnnn3C)cc2c(Cl)c1C1CCCC1 (single isomer, unassigned) [Example 136b, (4-Chloro-3-cyclopentyl-2-methoxyquinolin-6-yl)(2,6-dimethylpyridin-3-yl)(1-methyl-1H-1,2,3-triazol-5-yl)methanol] | RORγt (LBD) Reporter Assay, % inhibition: 76%
3 |  | 103 | COc1nc2ccc(C(O)(c3cnnn3C)c3cnc(C)n3C)cc2c(Cl)c1CN1CCC(C(F)(F)F)CC1 (single isomer, unassigned) [Example 106b, (4-Chloro-2-methoxy-3-((4-(trifluoromethyl)piperidin-1-yl)methyl)quinolin-6-yl)(1,2-dimethyl-1H-imidazol-5-yl)(1-methyl-1H-1,2,3-triazol-5-yl)methanol] | 
4 | 36 |  | COc1nc2ccc(C(O)(c3cncn3C)C3CCN(C(C)=O)CC3)cc2c(Cl)c1CC1CCOCC1 (single isomer, unassigned) [Example 5c, 1-(4-((4-Chloro-2-methoxy-3-((tetrahydro-2H-pyran-4-yl)methyl)quinolin-6-yl)(hydroxy)(1-methyl-1H-imidazol-5-yl)methyl)piperidin-1-yl)ethanone] | 
5 | 23 |  | COc1nc2ccc(C(O)(c3ccc(C)nc3C)c3cnnn3C)cc2c(Cl)c1C (single isomer, unassigned) [Example 12b, (4-Chloro-2-methoxy-3-methylquinolin-6-yl)(2,6-dimethylpyridin-3-yl)(1-methyl-1H-1,2,3-triazol-5-yl)methanol] | 
6 |  | 83 | COc1nc2ccc(C(O)(c3ccc(C)nc3C)c3cnnn3C)cc2c(Cl)c1OCC1CC1 (centres unmarked) [Example 68a, [4-Chloro-3-(cyclopropylmethoxy)-2-methoxyquinolin-6-yl](2,6-dimethylpyridin-3-yl)(1-methyl-1H-1,2,3-triazol-5-yl)methanol] | 
7 |  | 101 | COc1nc2ccc(C(O)(c3ccc(C)nc3C)c3cnnn3C)cc2c(Cl)c1CN1CCC(C(F)(F)F)CC1 (centres unmarked) [Example 103a, (4-Chloro-2-methoxy-3-((4-(trifluoromethyl)piperidin-1-yl)methyl)quinolin-6-yl)(2,6-dimethylpyridin-3-yl)(1-methyl-1H-1,2,3-triazol-5-yl)methanol] | 
8 |  |  | COc1nc2ccc(C(O)(c3ccc(C)nc3C)c3cnnn3C)cc2c(Cl)c1C1CCCC1 (centres unmarked) [Example 136a, (4-Chloro-3-cyclopentyl-2-methoxyquinolin-6-yl)(2,6-dimethylpyridin-3-yl)(1-methyl-1H-1,2,3-triazol-5-yl)methanol] | RORγt (LBD) Reporter Assay, % inhibition: 97%
9 |  |  | COc1nc2ccc(C(O)(c3ccc(C)nc3C)c3cnnn3C)cc2c(Cl)c1CC(F)(F)F (single isomer, unassigned) [Example 143b, [4-Chloro-2-methoxy-3-(2,2,2-trifluoroethyl)quinolin-6-yl](2,6-dimethylpyridin-3-yl)(1-methyl-1H-1,2,3-triazol-5-yl)methanol] | RORγt (LBD) Reporter Assay, % inhibition: 77%
10 | 72 |  | COc1nc2ccc(C(O)(c3ccc(C)nc3C)c3cnnn3C)cc2c(Cl)c1CC1CC1 (single isomer, unassigned) [Example 14b, (4-Chloro-3-(cyclopropylmethyl)-2-methoxyquinolin-6-yl)(2,6-dimethylpyridin-3-yl)(1-methyl-1H-1,2,3-triazol-5-yl)methanol] | 
11 | 33 |  | COc1nc2ccc(C(O)(c3ccc(C)nc3C)c3cnnn3C)cc2c(Cl)c1CN1CCC(n2cccn2)CC1 (single isomer, unassigned) [Example 105b, (3-((4-(1H-Pyrazol-1-yl)piperidin-1-yl)methyl)-4-chloro-2-methoxyquinolin-6-yl)(2,6-dimethylpyridin-3-yl)(1-methyl-1H-1,2,3-triazol-5-yl)methanol] | 
12 | −15 |  | COc1nc2ccc(C(O)(c3ccc(C)nc3C)c3cnnn3C)cc2c(Cl)c1OCc1nccs1 (single isomer, unassigned) [Example 73b, [4-Chloro-2-methoxy-3-(1,3-thiazol-2-ylmethoxy)quinolin-6-yl](2,6-dimethylpyridin-3-yl)(1-methyl-1H-1,2,3-triazol-5-yl)methanol] | 
13 | 54 |  | COc1nc2ccc(C(O)(c3ccc(C)nc3C)c3cnnn3C)cc2c(Cl)c1CN1CCC(F)(F)CC1 (single isomer, unassigned) [Example 107c, (4-Chloro-3-((4,4-difluoropiperidin-1-yl)methyl)-2-methoxyquinolin-6-yl)(2,6-dimethylpyridin-3-yl)(1-methyl-1H-1,2,3-triazol-5-yl)methanol] | 
14 | 98 |  | COc1nc2ccc(C(O)(c3ccc(C)nc3C)c3cnnn3C)cc2c(Cl)c1CC1CC1 (single isomer, unassigned) [Example 14c, (4-Chloro-3-(cyclopropylmethyl)-2-methoxyquinolin-6-yl)(2,6-dimethylpyridin-3-yl)(1-methyl-1H-1,2,3-triazol-5-yl)methanol] | 
15 |  | 99 | COc1nc2ccc(C(O)(c3ccc(C)nc3C)c3cnnn3C)cc2c(Cl)c1CC1CC1 (centres unmarked) [Example 14a, (4-Chloro-3-(cyclopropylmethyl)-2-methoxyquinolin-6-yl)(2,6-dimethylpyridin-3-yl)(1-methyl-1H-1,2,3-triazol-5-yl)methanol] | 
16 |  |  | COc1nc2ccc(C(O)(c3ccc(C)nc3C)c3cnnn3C)cc2c(Cl)c1CC(C)C (centres unmarked) [Example 133a, (4-Chloro-3-isobutyl-2-methoxyquinolin-6-yl)(2,6-dimethylpyridin-3-yl)(1-methyl-1H-1,2,3-triazol-5-yl)methanol] | RORγt (LBD) Reporter Assay, % inhibition: 98%
17 |  | 90 | COc1nc2ccc(C(O)(c3ccnc(C(F)(F)F)c3)c3cncn3C)cc2c(Cl)c1CN1CCC(C(F)(F)F)CC1 (single isomer, unassigned) [Example 100b, (4-Chloro-2-methoxy-3-((4-(trifluoromethyl)piperidin-1-yl)methyl)quinolin-6-yl)(1-methyl-1H-imidazol-5-yl)(2-(trifluoromethyl)pyridin-4-yl)methanol] | 
18 |  | 57 | COc1nc2ccc(C(O)(c3ccc(C)nc3C)c3cnnn3C)cc2c(Cl)c1OC1CCOCC1 (centres unmarked) [Example 69a, [4-Chloro-2-methoxy-3-(tetrahydro-2H-pyran-4-yloxy)quinolin-6-yl](2,6-dimethylpyridin-3-yl)(1-methyl-1H-1,2,3-triazol-5-yl)methanol] | 
19 | 61 |  | COc1nc2ccc(C(O)(c3ccc(C)nc3C)c3cnnn3C)cc2c(Cl)c1OC1CCOCC1 (single isomer, unassigned) [Example 69c, [4-Chloro-2-methoxy-3-(tetrahydro-2H-pyran-4-yloxy)quinolin-6-yl](2,6-dimethylpyridin-3-yl)(1-methyl-1H-1,2,3-triazol-5-yl)methanol] | 
20 |  | 45 | COc1nc2ccc(C(O)(c3cncn3C)C3CCN(C(C)=O)CC3)cc2c(Cl)c1CC1CCOCC1 (centres unmarked) [Example 5a, 1-(4-((4-Chloro-2-methoxy-3-((tetrahydro-2H-pyran-4-yl)methyl)quinolin-6-yl)(hydroxy)(1-methyl-1H-imidazol-5-yl)methyl)piperidin-1-yl)ethanone] | 
21 | 54 |  | COc1nc2ccc(C(O)(c3ccc(C)nc3C)c3cnnn3C)cc2c(Cl)c1OCC1CC1 (single isomer, unassigned) [Example 68b, [4-Chloro-3-(cyclopropylmethoxy)-2-methoxyquinolin-6-yl](2,6-dimethylpyridin-3-yl)(1-methyl-1H-1,2,3-triazol-5-yl)methanol] | 
22 | 53 |  | COc1nc2ccc(C(O)(c3ccc(C)nc3C)c3cnnn3C)cc2c(Cl)c1OCC1CC1(F)F (single isomer, unassigned) [Example 72b, {4-Chloro-3-[(2,2-difluorocyclopropyl)methoxy]-2-methoxyquinolin-6-yl}(2,6-dimethylpyridin-3-yl)(1-methyl-1H-1,2,3-triazol-5-yl)methanol] | 
23 | 86 |  | COc1nc2ccc(C(O)(c3ccc(C)nc3C)c3cnnn3C)cc2c(Cl)c1OCC1CC1(F)F (single isomer, unassigned) [Example 72c, {4-Chloro-3-[(2,2-difluorocyclopropyl)methoxy]-2-methoxyquinolin-6-yl}(2,6-dimethylpyridin-3-yl)(1-methyl-1H-1,2,3-triazol-5-yl)methanol] | 
24 | 66 |  | COc1nc2ccc(C(O)(c3ccc(C)nc3C)c3cnnn3C)cc2c(Cl)c1CC1CCC(F)(F)CC1 (single isomer, unassigned) [Example 1c, (4-Chloro-3-((4,4-difluorocyclohexyl)methyl)-2-methoxyquinolin-6-yl)(2,6-dimethylpyridin-3-yl)(1-methyl-1H-1,2,3-triazol-5-yl)methanol] | 
25 |  | 39 | COc1nc2ccc(C(O)(c3ccc(C)nc3C)c3cnnn3C)cc2c(Cl)c1OC1CCN(C)CC1 (single isomer, unassigned) [Example 65b, {4-Chloro-2-methoxy-3-[(1-methylpiperidin-4-yl)oxy]quinolin-6-yl}(2,6-dimethylpyridin-3-yl)(1-methyl-1H-1,2,3-triazol-5-yl)methanol] | 
26 |  | 33 | COc1nc2ccc(C(O)(c3cncn3C)C3CCN(C(C)=O)CC3)cc2c(Cl)c1CC1CCOCC1 (single isomer, unassigned) [Example 5b, 1-(4-((4-Chloro-2-methoxy-3-((tetrahydro-2H-pyran-4-yl)methyl)quinolin-6-yl)(hydroxy)(1-methyl-1H-imidazol-5-yl)methyl)piperidin-1-yl)ethanone] | 
